Values joined by “and” are separate entries in the source; they are usually repeats but may differ in a detail not shown here. Equal entries are not always repeated.
Experiments:
[1] = administered in large quantities; cited from earlier work
[2] = In vitro resorption of bovine vertebral cortical bone sections (weight change after incubation)
Procedure: Fresh bovine vertebral bone was cut into 1-3 g sections with a diamond saw blade. Non-cortical medullary bone was trimmed from the cortical bone and the sections were dried while incubated for 12 hours at 37° C. and then weighed. […] Bone sections were then dried and reweighed.

[3] = citric acid 0.001M, pH 3.25, 37° C., 96 hours
[4] = citric acid 0.01M, pH 2.62, 37° C., 96 hours
[5] = citric acid 0.1M, pH 2.08, 37° C., 96 hours
[6] = citric acid 1M, pH 1.57, 37° C., 96 hours
[7] = sodium citrate 0.001M, pH 7.65, 37° C., 96 hours
[8] = sodium citrate 0.01M, pH 7.78, 37° C., 96 hours
[9] = sodium citrate 0.1M, pH 9.27, 37° C., 96 hours
[10] = sodium citrate 1M, pH 8.67, 37° C., 96 hours

## O=C(O)CC(O)(CC(=O)O)C(=O)O [Citrate]
[1]
  toxicity: non-toxic

## O=C(O)CC(O)(CC(=O)O)C(=O)O [Citric acid, citric acid]
[2]; [3]
  % change: +0.00349%
  Wt. change: +0.00432 g
[2]; [4]
  % change: −0.04435%
  Wt. change: -0.06128 g
[2]; [5]
  % change: −0.1198%
  Wt. change: -0.1916 g
[2]; [6]
  % change: −0.288%
  Wt. change: -0.4863 g
[2]; citric acid, 37° C., 96 hours
  dependence of bone resorption: pH dependent

## O=C([O-])CC(O)(CC(=O)[O-])C(=O)[O-].[Na+].[Na+].[Na+] [Sodium citrate, sodium citrate]
[2]; [7]
  % change: −0.00037%
  Wt. change: -0.00077 g
[2]; [8]
  % change: −0.01319%
  Wt. change: -0.03261 g
[2]; sodium citrate 0.1M, pH 9.27, 37° C.
  % change: −0.03159% and −0.00551%
[2]; [9]
  % change: −0.01116%
  Wt. change: -0.01593 g
[2]; sodium citrate 0.125M, pH 9.20, 37° C.
  % change: −0.00109% and −0.03799%
[2]; sodium citrate 0.15M, pH 9.16, 37° C.
  % change: −0.04659% and −0.05754%
[2]; sodium citrate 0.25M, pH 9.12, 37° C.
  % change: −0.00373% and −0.01174%
[2]; sodium citrate 0.55M, pH 8.68, 37° C.
  % change: −0.00196% and −0.01386%
[2]; [10]
  % change: −0.01873%
  Wt. change: -0.04881 g
[2]; sodium citrate, 37° C., 168 hours
  molarity of greatest resorption of bone: 0.15 M

— patent US9616040B2 (priority 2016, dated 2017)
